{"source": "patent US6875786B2", "about": "“Thrombopoietin mimetics” (SmithKline Beecham Corporation, priority 2001, dated 2005)", "test_system": "32D-mpl cells", "experiment": "proliferation of 32D-mpl cells", "type": "cell-based", "procedure": "The compound of Example 1, promoted the proliferation of 32D-mpl cells at a concentration of 0.03 to 30 uM.", "note": "pEC50: −log10 of the molar value."}
{"smiles": "CC1=NN(c2ccc(C)c(C)c2)C(=O)C1=CNc1cccc(-c2cccc(C(=O)O)c2)c1O", "note": "[Example 1, 3′-{[1-(3.4-Dimethylphenyl)-3-methyl-5-oxo-1,5-dihydropyrazol-4-ylidenemethyl]amino}-2′-hydroxybiphenyl-3-carboxylic Acid]", "values": [{"measurement": "pEC50", "result": 6.17}, {"measurement": "% TPOmax", "setting": "relative to TPO maximum", "result": 85, "unit": "%"}]}
